# Values quoted from earlier work, collected in article PMC2864424 (Current Chemical Genomics, 2010).
# Experiments:
# OATP1B3 = details: concentrations up to 10 μM; cited from earlier work
# OATP1B1 = details: cited from earlier work
smiles,measurement,setting,value
CC1(C)C(/C=C/C=C/C=C/C=C2\N(CCCCS(=O)(=O)O)c3ccc4ccccc4c3C2(C)C)=[N+](CCCCS(=O)(=O)[O-])c2ccc3ccccc3c21 [indocyanine green],effect on OATP1B3-mediated estradiol-17β-glucuronide transport,OATP1B3,not affecting
same,effect on OATP1B1-mediated estradiol-17β-glucuronide transport,OATP1B1,specific inhibitor
